This is an account of results in patent US20050032761A1, “Lipid profile modulation” (priority 2001, published 2005).

The structures appear in SMILES notation.

The nature of data set [1]: Carbenoxolone randomised double-blind crossover study, fasting plasma lipids. As to conditions: men with type 2 diabetes mellitus and healthy controls, vs placebo.
Excerpt: Fasting levels of plasma lipids are shown.
The target in data set [2] is T1, 11β-HSD1 (Homo sapiens, UniProt P28845).
T1 construct: host or cells: human subjects in vivo
The note with it: humans; cited from earlier work.

The target in data set [3] is T2, 5β-reductase (Rattus norvegicus, UniProt P31210).
T2 construct: conversion of [^3H]-corticosterone to [^3H]-5β-tetrahydrocorticosterone in liver cytosol preparations; from tissue; host or cells: Zucker rat liver cytosol
T2 sequence (P31210 1-326): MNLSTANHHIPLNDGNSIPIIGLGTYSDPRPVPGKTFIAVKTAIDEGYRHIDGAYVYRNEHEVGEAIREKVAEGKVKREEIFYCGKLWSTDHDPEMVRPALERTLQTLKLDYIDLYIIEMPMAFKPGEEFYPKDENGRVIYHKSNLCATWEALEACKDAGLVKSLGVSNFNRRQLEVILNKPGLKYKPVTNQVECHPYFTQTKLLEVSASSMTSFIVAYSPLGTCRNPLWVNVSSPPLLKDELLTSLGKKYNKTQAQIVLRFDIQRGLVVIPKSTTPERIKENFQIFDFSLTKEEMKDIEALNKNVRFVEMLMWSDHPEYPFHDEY
In words: Hepatic 5β-reductase activity in liver cytosol after carbenoxolone administration. The note with it: obese animals. Format: in vivo, Zucker rats. Here is the method:
(§1) Drug treatment—Drug treatment was commenced when the animals were 6 weeks of age. […] Animals were weighed regularly to allow accurate dosing with drugs, and to follow the progress of weight gain. Food intake for each cage of 4 animals was measured daily. After two weeks of treatment animals underwent an oral glucose tolerance test, which consisted of an overnight fast, followed by an oral glucose load of 2 g/kg body weight at 0900 h. Blood samples were taken by tail-nick at 0, 30 and 120 min after the glucose bolus.
5β-Reductase activity in the liver was assessed by the conversion of [^3H]-corticosterone to [^3H]-5β-tetrahydrocorticosterone in liver cytosol preparations. The sub-cellular localisation and cofactor preference of 11β-HSD1 and 5β-reductase differ such that the enzyme activities can be measured independently of one another. Liver cytosol was prepared by repeated centrifugation according to the method of (Fleischer & Kervina 1974). Enzyme activity was measured by incubating cytosol (100 μg protein/ml) in duplicate at 37° C., in phosphate buffer (40 mM Na2PO4, 320 mM sucrose, 1 mM dithiothreitol, pH 7.5) containing NADPH (1 mM) and [^3H]-corticosterone (150 nM). […] Steroids were separated by HPLC using a reverse phase C8 column at 10° C., and quantified by on-line liquid scintillation counting. […]

A short description of data set [4]: Hypothalamic pituitary adrenal axis: adrenal weight and plasma corticosterone in Zucker rats. Format: in vivo. On the procedure:
as §1, with “bolus. […] Plasma assays—Corticosterone levels were measured in plasma prepared from terminal blood samples collected at 0900-1100 h using an in-house radioimmunoassay (74). The inter- and intra-assay coefficients of variation were<10%.” for “bolus.”

Data set [5] is described as follows: Food intake and body weight in lean and obese Zucker rats treated with carbenoxolone. Format: in vivo. As to conditions: lean or obese animals; 50 mg/kg by gavage daily, three weeks. Here is the method:
as §1, with “Groups of eight 5-week-old male obese and lean Zucker rats (Harlan Orlac, Bicester, UK) were characterised by phenotype; maintained under controlled conditions of light (on 0800 h-2000 h) and temperature (21° C.) and allowed free access to standard rat chow. (Special Diet Services, Witham, UK) and drinking water. Drug treatment—Drug” for “Drug treatment—Drug”

Data set [6] in a line: Non-fasting plasma lipid levels in lean and obese Zucker rats. Format: in vivo. Here is the method: as §1, with “bolus. […] Lipid levels were measured in plasma prepared from terminal blood samples collected at 0900-1100 h. Triglycerides, total cholesterol and HDL cholesterol were measured using […] (TG, CHOL and HDL C-plus respectively) from Roche Diagnostics, Mannheim, Germany. Non-esterified fatty acids (NEFAs) were measured using the Wako NEFA C enzymatic assay (Alpha Laboratories Ltd, Hampshire, UK).” for “bolus.”

Data set [7] is described as follows: Oral glucose tolerance test in lean and obese Zucker rats. Format: in vivo. Here is the method:
as §1, with “bolus. […] Glucose concentrations were determined using a hexokinase glucose assay kit (Sigma, Poole, UK), for which the inter- and intra-assay coefficients of variation were both <2%.” for “bolus.”

The target in data set [8] is T3, 11β-HSD1 (Rattus norvegicus, UniProt P16232). In words: 11β-HSD1 activity in tissue homogenates after carbenoxolone administration. The arrangement: from tissue; host or cells: Zucker rat liver, quadriceps skeletal muscle, subcutaneous lumbar fat, omental fat homogenates; species or system Zucker rats. The note with it: ex vivo, liver; lean and obese animals. Here is the method: as §1
Measurement of enzyme activities in vitro—11β-HSD1 activity was measured in homogenates of tissues by incubating in duplicate at 37° C., in Krebs Ringer buffer containing glucose (0.2%), NADP (2 mM) and 1,2,6,7-[^3H]4-corticosterone (100 nM). Conditions were optimised for each tissue to ensure first order kinetics, by adjusting protein concentrations as follows: 10 μg/ml for liver; 1.5 mg/ml for quadriceps skeletal muscle; 0.5 mg/ml for subcutaneous lumbar fat and 1 mg/ml for omental fat. […] Steroids were separated by HPLC using a reverse phase μ-Bondapak C18 column at 20° C. and quantified by on-line liquid scintillation counting. No peaks other than ^3H-corticosterone and ^3H-11-dehydrocorticosterone were detected under these conditions.

In data set [9] the target is T4, 5β-reductase (Homo sapiens, UniProt P51857).
T4 sequence (P51857 1-326): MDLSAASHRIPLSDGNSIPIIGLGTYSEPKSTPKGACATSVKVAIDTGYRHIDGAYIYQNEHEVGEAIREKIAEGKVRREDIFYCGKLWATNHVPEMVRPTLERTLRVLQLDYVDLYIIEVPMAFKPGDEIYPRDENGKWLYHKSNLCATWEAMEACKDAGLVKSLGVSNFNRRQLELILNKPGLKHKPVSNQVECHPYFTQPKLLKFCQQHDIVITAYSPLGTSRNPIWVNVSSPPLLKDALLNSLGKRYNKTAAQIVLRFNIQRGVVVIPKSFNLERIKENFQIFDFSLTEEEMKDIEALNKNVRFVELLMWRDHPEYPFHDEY
The note with it: reported (70); cited from earlier work.

In data set [10] the test system is glucocorticoid receptor-mediated response in human skin. In words: Skin blanching after topical application to forearm skin. Format: in vivo. The note with it: applied together with beclomethasone, 12 healthy humans. Here is the method: The intensity of skin blanching was recorded the following day by two observers who were blind to the order of application of steroid solutions, as described (80).

The target of data set [11] is T3, 11β-HSD1. In words: Incubation of beclomethasone with homogenised rat liver. Format: in vitro ADME. The arrangement: incubation of beclomethasone with homogenised rat liver; from tissue; host or cells: homogenised rat liver. The note with it: HPLC, UV 254 nm.
[12] abbreviates: non-fasting plasma, obese animals.

T1 sequence (P28845 whole entry): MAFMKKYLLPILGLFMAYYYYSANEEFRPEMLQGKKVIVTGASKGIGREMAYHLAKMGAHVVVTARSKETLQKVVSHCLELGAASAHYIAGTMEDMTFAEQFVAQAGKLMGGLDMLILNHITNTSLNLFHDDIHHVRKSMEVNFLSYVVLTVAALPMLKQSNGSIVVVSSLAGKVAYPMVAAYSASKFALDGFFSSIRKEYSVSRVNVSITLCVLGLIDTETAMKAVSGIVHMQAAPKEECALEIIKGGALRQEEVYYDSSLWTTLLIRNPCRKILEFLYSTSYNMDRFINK
T3 sequence (P16232 whole entry): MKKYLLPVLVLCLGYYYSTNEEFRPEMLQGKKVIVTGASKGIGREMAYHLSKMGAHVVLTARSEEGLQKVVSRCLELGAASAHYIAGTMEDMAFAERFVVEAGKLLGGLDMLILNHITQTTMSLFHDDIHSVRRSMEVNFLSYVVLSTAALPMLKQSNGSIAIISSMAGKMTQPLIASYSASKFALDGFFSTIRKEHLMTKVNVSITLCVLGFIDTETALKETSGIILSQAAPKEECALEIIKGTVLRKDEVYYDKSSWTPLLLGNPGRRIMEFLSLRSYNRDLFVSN

As for `CC1(C)[C@@H](OC(=O)CCC(=O)O)CC[C@]2(C)[C@H]3C(=O)C=C4[C@@H]5C[C@@](C)(C(=O)O)CC[C@]5(C)CC[C@@]4(C)[C@]3(C)CC[C@@H]12` [Carbenoxolone], in [1], the “HDL (high density lipoprotein) cholesterol concentrations” value is “raised”, the total cholesterol result is reported as “did not affect” and the triglyceride concentrations entry is “lowered”. Moreover, at 11β-HSD1 [2], the “amount of glucose required to maintain normoglycemia” value is on record as “increases” and the forearm glucose uptake result is “without altering”. For the same compound, the “hepatic 5β-reductase activity (conversion of corticosterone to 5β-tetrahydrocorticosterone)” value at 5β-reductase [3] is on record as “exacerbated the increase”. Also, in [4] (lean and obese, terminal blood, trend for carbenoxolone to increase), the plasma corticosterone levels result is listed as “no statistically significant differences”. For the same compound, the adrenal weight result in data set [4] (lean animals) is given as “no effect”. In data set [4] (obese rats), the “adrenal weight (adrenal hypertrophy)” value is reported as “ameliorated”. In [5], the body weight result was “no effect” and the food intake entry was “no effect”. For the same compound, in [6] (all groups, lean and obese), the “non-fasting plasma NEFAs” value was “not different”. For the same compound, in data set [6] (non-fasting plasma, lean and obese rats, three weeks of treatment), the total cholesterol result is recorded as “not affected”. For the same compound, in data set [6] (setting [12]), the HDL cholesterol entry is given as “increased” and the triglycerides result was “reduced”. Also, in [7] (30 min after glucose, both lean and obese animals), the plasma insulin result is “increased”. In addition, the plasma insulin result in [7] (120 min after glucose, obese animals) is given as “increased”. Also, the glucose tolerance entry in [7] (Zucker rats) is given as “no effect”. In [7] (fasting state, both lean and obese animals), the plasma insulin entry was “increased”. The plasma glucose entry in data set [7] (lean and obese, fasting and after oral glucose load, two weeks of treatment) was “no significant effect”. The “hepatic 11β-HSD1 activity (conversion of corticosterone to 11-dehydrocorticosterone)” value at 11β-HSD1 [8] is “inhibition”.
As to `CC1(C)[C@@H](O)CC[C@]2(C)[C@H]3C(=O)C=C4[C@@H]5C[C@@](C)(C(=O)O)CC[C@]5(C)CC[C@@]4(C)[C@]3(C)CC[C@@H]12` [Glycyrrhetinic acid], the “inhibition of 5β-reductase” value on 5β-reductase [9] is “inhibit”. In addition, the “blanching response to beclomethasone (area under the dose-response curve)” value in data set [10] is recorded as “reduced”.
In the case of `C[C@H]1C[C@H]2[C@@H]3CCC4=CC(=O)C=C[C@]4(C)[C@@]3(Cl)[C@@H](O)C[C@]2(C)[C@@]1(O)C(=O)CO` [beclomethasone], the “conversion of beclomethasone to 11-dehydrobeclomethasone” value on 11β-HSD1 [11] is recorded as “substrate”.
